{
  "source": "patent US4017534A",
  "about": "“16-Fluoro-11-deoxy-13-dihydro-prostaglandin” (American Cyanamid Company, priority 1975, dated 1977)",
  "key": {"[1]": {"tested_on": "bronchospasms elicited by acetylcholine", "assay": "Bronchodilator activity (intraduodenal route) against acetylcholine", "type": "in vivo, guinea pigs", "parameters": "key: 0: no activity; +: minimal activity; ++++: maximum activity", "settings": "intraduodenal dose 3.2 mg./kg.", "description": "(§1) The compounds of this invention are useful as bronchodilators for the treatment of asthma and chronic bronchitis. Bronchodilator activity is determined in guinea pigs against bronchospasms elicited by intravenous injections of 5-hydroxytryptamine, histamine or acetylcholine by the Konzett procedure. [See J. Lulling, P. Lievens, F. El Sayed and J. Prignot, Arzneimittel-Forschung, 18, 995 (1968).]\n(§2) In Table A' which follows bronchodilator activity for representative compounds of this invention against one or more of three spasmogenic agents is reported. In this assay candidate compounds are suspended in 10% gum arabic solution and the suspension is administered by the intraduodenal route. The activity of the compound at any one dose is then investigated throughout the following hour (see above-cited reference, J. Lulling et al.). Potency is then reported as O, +, ++, +++, or ++++, wherein 0 represents no activity, + minimal activity and ++++ maximum activity."}, "[2]": {"tested_on": "bronchospasms elicited by 5-hydroxytryptamine", "assay": "Bronchodilator activity (intraduodenal route) against 5-hydroxytryptamine", "type": "in vivo, guinea pigs", "parameters": "key: 0: no activity; +: minimal activity; ++++: maximum activity", "settings": "intraduodenal dose 3.2 mg./kg.", "description": "as §1, §2"}},
  "data": [
    {"compound": "CCCCC[C@H](O)CC[C@H]1CCC2(OCCCO2)[C@@H]1CCCCCCC(=O)O", "note": "[l-15(S)-hydroxy-9,9-(propylenedioxy)-prostanoic acid]", "values": [
      {"measurement": "Bronchodilator potency, Spasmogenic Agent Acetylcholine", "setting": "[1]", "value": "+"},
      {"measurement": "Bronchodilator potency, Spasmogenic Agent 5-Hydroxytryptamine", "setting": "[2]", "value": "+"}
    ]}
  ]
}
